Results published in PubChem BioAssay AID250 (DTP/NCI, 2004).
Several values for one entry are separate records, joined by “and”; a condition that tells them apart may be missing. Identical values can stand only once. Inconclusive results and toxic doses are left out.

System: BDF1 mice, L1210 leukemia sc, survival T/C
Test: NCI In Vivo Anticancer Drug Screen. Data for tumor model L1210 Leukemia (subcutaneous) in B6D2F1 (BDF1) mice
Settings: endpoint: median survival time, higher = longer survival
How it was run: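 Mice carrying transplanted tumors received test compounds, and survival or tumor size was measured. Values are the treated-group measurement (T) divided by that of the vehicle-treated control group (C).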

In the case of `O=C(Nc1ccc(C2=NCCN2)cc1)c1ccc(C(=O)Nc2ccc(C3=NCCN3)cc2)c(Cl)c1`, the T/C (dose: 0.19 mg/kg/injection, schedule: Q01DX Z (iv), vehicle: water) is reported as 100 % of control, the T/C (dose: 0.38 mg/kg/injection, schedule: Q01DX Z (iv), vehicle: water) is reported as 100 % of control and the T/C (dose: 0.75 mg/kg/injection, schedule: Q01DX Z (iv), vehicle: water) is reported as 90 % of control. The T/C (dose: 1.3 mg/kg/injection, schedule: Q01DX Z (ip), vehicle: water) was 95 % of control, the T/C (dose: 1.5 mg/kg/injection, schedule: Q01DX Z (iv), vehicle: water) was 95 % of control and the T/C (dose: 2.16 mg/kg/injection, schedule: Q01DX Z (ip), vehicle: water) was 100 % of control. For the same molecule, the T/C (dose: 2.16 mg/kg/injection, schedule: Q01DX Z (sc), vehicle: water) was 95 % of control, the T/C (dose: 2.5 mg/kg/injection, schedule: Q01DX Z (sc), vehicle: methylcellulose (MC)) was 111 % of control and the T/C (dose: 3.0 mg/kg/injection, schedule: Q01DX Z (ip), vehicle: water) was 100 % of control. The T/C (dose: 3.0 mg/kg/injection, schedule: Q01DX Z (iv), vehicle: water) was 100 % of control, the T/C (dose: 3.0 mg/kg/injection, schedule: Q01DX Z (sc), vehicle: saline) was 100 % of control and 104 % of control and the T/C (dose: 3.6 mg/kg/injection, schedule: Q01DX Z (ip), vehicle: water) was 90 % of control. The T/C (dose: 3.6 mg/kg/injection, schedule: Q01DX Z (sc), vehicle: water) was 100 % of control, the T/C (dose: 5.0 mg/kg/injection, schedule: Q01DX Z (ip), vehicle: water) was 100 % of control and the T/C (dose: 5.0 mg/kg/injection, schedule: Q01DX Z (sc), vehicle: methylcellulose (MC)) was 116 % of control. For the same molecule, the T/C (dose: 5.0 mg/kg/injection, schedule: Q01DX Z (sc), vehicle: saline) was 100 % of control, the T/C (dose: 5.0 mg/kg/injection, schedule: Q01DX Z (sc), vehicle: water) was 110 % of control and 111 % of control and the T/C (dose: 6.0 mg/kg/injection, schedule: Q01DX Z (ip), vehicle: water) was 95 % of control. For the same molecule, the T/C (dose: 6.0 mg/kg/injection, schedule: Q01DX Z (iv), vehicle: water) was 100 % of control, the T/C (dose: 6.0 mg/kg/injection, schedule: Q01DX Z (sc), vehicle: water) was 100 % of control and the T/C (dose: 8.4 mg/kg/injection, schedule: Q01DX Z (ip), vehicle: water) was 160 % of control. The T/C (dose: 8.4 mg/kg/injection, schedule: Q01DX Z (sc), vehicle: saline) was 109 % of control and 110 % of control and 122 % of control, the T/C (dose: 8.4 mg/kg/injection, schedule: Q01DX Z (sc), vehicle: water) was 170 % of control and the T/C (dose: 10.0 mg/kg/injection, schedule: Q01DX Z (ip), vehicle: water) was 105 % of control. For the same molecule, the T/C (dose: 10.0 mg/kg/injection, schedule: Q01DX Z (sc), vehicle: methylcellulose (MC)) was 244 % of control, the T/C (dose: 10.0 mg/kg/injection, schedule: Q01DX Z (sc), vehicle: water) was 120 % of control and 233 % of control and the T/C (dose: 12.0 mg/kg/injection, schedule: Q01DX Z (sc), vehicle: water) was 181 % of control. For the same molecule, the T/C (dose: 14.0 mg/kg/injection, schedule: Q01DX Z (ip), vehicle: water) was 160 % of control, the T/C (dose: 14.0 mg/kg/injection, schedule: Q01DX Z (sc), vehicle: saline) was 210 % of control and the T/C (dose: 14.0 mg/kg/injection, schedule: Q01DX Z (sc), vehicle: water) was 190 % of control and 170 % of control. The T/C (dose: 14.0 mg/kg/injection, schedule: Q02DX Z (sc), vehicle: saline) was 100 % of control, the T/C (dose: 17.0 mg/kg/injection, schedule: Q01DX001 (ip), vehicle: water) was 100 % of control and the T/C (dose: 17.0 mg/kg/injection, schedule: Q01DX Z (sc), vehicle: water) was 210 % of control. For the same molecule, the T/C (dose: 20.0 mg/kg/injection, schedule: Q01DX Z (sc), vehicle: methylcellulose (MC)) was 244 % of control, the T/C (dose: 20.0 mg/kg/injection, schedule: Q01DX Z (sc), vehicle: water) was 244 % of control and the T/C (dose: 23.0 mg/kg/injection, schedule: Q01DX Z (ip), vehicle: water) was 180 % of control. The T/C (dose: 23.0 mg/kg/injection, schedule: Q01DX Z (sc), vehicle: other) was 210 % of control, the T/C (dose: 23.0 mg/kg/injection, schedule: Q01DX Z (sc), vehicle: saline) was 195 % of control and 200 % of control and the T/C (dose: 23.0 mg/kg/injection, schedule: Q01DX Z (sc), vehicle: water) was 210 % of control and 240 % of control and 170 % of control. The T/C (dose: 23.0 mg/kg/injection, schedule: Q02DX Z (sc), vehicle: saline) was 110 % of control, the T/C (dose: 23.0 mg/kg/injection, schedule: Q## X Z (sc), vehicle: saline) was 110 % of control and the T/C (dose: 24.0 mg/kg/injection, schedule: Q01DX Z (sc), vehicle: water) was 200 % of control. The T/C (dose: 28.0 mg/kg/injection, schedule: Q01DX001 (ip), vehicle: water) was 100 % of control, the T/C (dose: 28.0 mg/kg/injection, schedule: Q01DX Z (ip), vehicle: water) was 205 % of control and the T/C (dose: 28.0 mg/kg/injection, schedule: Q01DX Z (sc), vehicle: water) was 190 % of control. For the same molecule, the T/C (dose: 39.0 mg/kg/injection, schedule: Q01DX Z (sc), vehicle: other) was 200 % of control, the T/C (dose: 39.0 mg/kg/injection, schedule: Q01DX Z (sc), vehicle: saline) was 180 % of control and 185 % of control and 195 % of control and the T/C (dose: 39.0 mg/kg/injection, schedule: Q01DX Z (sc), vehicle: water) was 210 % of control and 195 % of control. For the same molecule, the T/C (dose: 39.0 mg/kg/injection, schedule: Q## X Z (sc), vehicle: saline) was 170 % of control, the T/C (dose: 40.0 mg/kg/injection, schedule: Q01DX001 (sc), vehicle: methylcellulose (MC)) was 111 % of control and the T/C (dose: 40.0 mg/kg/injection, schedule: Q01DX Z (sc), vehicle: methylcellulose (MC)) was 177 % of control. For the same molecule, the T/C (dose: 40.0 mg/kg/injection, schedule: Q01DX Z (sc), vehicle: water) was 227 % of control, the T/C (dose: 47.0 mg/kg/injection, schedule: Q01DX001 (ip), vehicle: water) was 100 % of control and the T/C (dose: 47.0 mg/kg/injection, schedule: Q01DX Z (sc), vehicle: water) was 200 % of control. The T/C (dose: 48.0 mg/kg/injection, schedule: Q01DX Z (sc), vehicle: water) was 181 % of control, the T/C (dose: 65.0 mg/kg/injection, schedule: Q01DX Z (sc), vehicle: other) was 180 % of control and the T/C (dose: 65.0 mg/kg/injection, schedule: Q01DX Z (sc), vehicle: saline) was 155 % of control and 163 % of control and 166 % of control. The T/C (dose: 65.0 mg/kg/injection, schedule: Q01DX Z (sc), vehicle: water) was 155 % of control and 185 % of control and 170 % of control, the T/C (dose: 65.0 mg/kg/injection, schedule: Q## X Z (sc), vehicle: saline) was 200 % of control and the T/C (dose: 78.0 mg/kg/injection, schedule: Q01DX001 (ip), vehicle: water) was 100 % of control. For the same molecule, the T/C (dose: 78.0 mg/kg/injection, schedule: Q01DX001 (sc), vehicle: water) was 100 % of control, the T/C (dose: 78.0 mg/kg/injection, schedule: Q01DX Z (sc), vehicle: water) was 170 % of control and the T/C (dose: 80.0 mg/kg/injection, schedule: Q01DX001 (sc), vehicle: methylcellulose (MC)) was 116 % of control. The T/C (dose: 80.0 mg/kg/injection, schedule: Q01DX Z (sc), vehicle: methylcellulose (MC)) was 111 % of control, the T/C (dose: 80.0 mg/kg/injection, schedule: Q01DX Z (sc), vehicle: water) was 155 % of control and the T/C (dose: 108.0 mg/kg/injection, schedule: Q01DX001 (sc), vehicle: saline) was 170 % of control. The T/C (dose: 108.0 mg/kg/injection, schedule: Q01DX Z (sc), vehicle: saline) was 154 % of control, the T/C (dose: 108.0 mg/kg/injection, schedule: Q02DX Z (sc), vehicle: saline) was 200 % of control and the T/C (dose: 130.0 mg/kg/injection, schedule: Q01DX001 (ip), vehicle: water) was 105 % of control. For the same molecule, the T/C (dose: 130.0 mg/kg/injection, schedule: Q01DX001 (sc), vehicle: water) was 110 % of control, the T/C (dose: 160.0 mg/kg/injection, schedule: Q01DX001 (sc), vehicle: methylcellulose (MC)) was 166 % of control and the T/C (dose: 160.0 mg/kg/injection, schedule: Q01DX001 (sc), vehicle: water) was 161 % of control. For the same molecule, the T/C (dose: 180.0 mg/kg/injection, schedule: Q01DX001 (sc), vehicle: saline) was 190 % of control, the T/C (dose: 180.0 mg/kg/injection, schedule: Q01DX Z (sc), vehicle: other) was 115 % of control and the T/C (dose: 180.0 mg/kg/injection, schedule: Q02DX Z (sc), vehicle: saline) was 180 % of control. The T/C (dose: 300.0 mg/kg/injection, schedule: Q01DX Z (sc), vehicle: other) was 90 % of control, the T/C (dose: 300.0 mg/kg/injection, schedule: Q01DX Z (sc), vehicle: water) was 105 % of control and the T/C (dose: 300.0 mg/kg/injection, schedule: Q02DX Z (sc), vehicle: saline) was 170 % of control. For the same molecule, the T/C (dose: 300.0 mg/kg/injection, schedule: Q## X Z (sc), vehicle: saline) was 205 % of control, the T/C (dose: 320.0 mg/kg/injection, schedule: Q01DX001 (sc), vehicle: water) was 222 % of control and the T/C (dose: 360.0 mg/kg/injection, schedule: Q01DX001 (sc), vehicle: water) was 155 % of control. For the same molecule, the T/C (dose: 500.0 mg/kg/injection, schedule: Q## X Z (sc), vehicle: saline) was 200 % of control and the T/C (dose: 600.0 mg/kg/injection, schedule: Q01DX001 (sc), vehicle: water) was 150 % of control.
